What all share (test): Bliss excess, mean over the matrix (fraction); higher = more synergy
In test [1] the test system is PANC-10-05 (Pancreatic Carcinoma). The procedure, abridged:
(§1)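 Bliss excess equals the observed combination effect minus the expected value EA + EB − EA·EB, where EA and EB are the effects of each agent alone. Combination Emax is the second-highest inhibition within the matrix. Inhibition was scaled from CellTiter-Glo 2.0 luminescence, with 0 set by vehicle wells and 1 by blank wells, after 72 hours of two-drug dosing of cells plated in 1536-well plates.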

Test [2] deals with TT2609-C02 (Thyroid Gland Carcinoma). The procedure, abridged:
as §1

For test [3], the system named is SK-MG-1 (Low Grade Glioma). The procedure, abridged:
as §1

In another test the test system is LN-405 (Glioblastoma). The procedure, abridged: as §1
The test system of test [4] is NCI-H64 (Small Cell Lung Carcinoma). Summed up: as §1
The subject of test [5] is JSC-1 (B-Cell Non-Hodgkin's Lymphoma). Summed up:
as §1

In test [6] the test system is SK-MES-1 (Squamous Cell Lung Carcinoma). Summed up: as §1
A further test concerns A498 (Kidney Carcinoma). Summed up: as §1
Another test relates to ARH-77 (Non-Cancerous). Summed up: as §1
Test [7] relates to HCC1954 (Breast Carcinoma). Summed up:
as §1

Another test has as its system 8-MG-BA (Glioblastoma). Summed up:
as §1

The test system of test [8] is CAL-29 (Bladder Carcinoma). Summed up:
as §1

For test [9], the system named is TT (Thyroid Gland Carcinoma). Summed up:
as §1

Test [10] deals with NCI-H2066 (Squamous Cell Lung Carcinoma). The procedure, abridged:
as §1

In a further test the test system is GI-ME-N (Neuroblastoma). The procedure, abridged:
as §1

Test [11] relates to VCaP (Prostate Carcinoma). The procedure, abridged: as §1
The test system of test [12] is A3-KAW (B-Cell Non-Hodgkin's Lymphoma). Summed up: as §1
In a further test the test system is IGR-37 (Melanoma). Summed up:
as §1

For the next test, the system named is NCI-H2591 (Mesothelioma). Summed up: as §1
Test [13] relates to A549 (Lung Adenocarcinoma). Summed up:
as §1

Regarding `CN(CCO)CC[C@H](CSc1ccccc1)Nc1ccc(S(=O)(=O)NC(=O)c2ccc(N3CCC([C@@H](O)c4ccccc4-c4ccc(Cl)cc4)CC3)cc2)cc1S(=O)(=O)C(F)(F)F` [AZD4320] + Cc1cc2ncnn2cc1Nc1ncc2c(n1)n(C1CCOCC1)c(=O)n2C [AZD7648] (first compound max 1 µM, 7x7, partner max 10 µM), the Bliss excess in test [1] is -0.0652; in test [2], -0.0367; in test [3], -0.0239; in the test on LN-405 (Glioblastoma) it was 0.0012; in [4], -0.0449; in [5], -0.0113. The Bliss excess in test [6] was -0.0632; with A498 (Kidney Carcinoma) it was -0.0393; with ARH-77 (Non-Cancerous), 0.0238; in test [7] it was 0.028; in the test with 8-MG-BA (Glioblastoma), -0.0188; in test [8], -0.0074. The Bliss excess in [9] was -0.0694; in test [10] it was 0.0299; with GI-ME-N (Neuroblastoma) it was -0.0775; in test [11] it was -0.0185; in [12], 0.0296; in the test with IGR-37 (Melanoma), -0.0132. In addition, the Bliss excess is -0.0445 with NCI-H2591 (Mesothelioma) and -0.0263 in [13].
For `CN(CCO)CC[C@H](CSc1ccccc1)Nc1ccc(S(=O)(=O)NC(=O)c2ccc(N3CCC([C@@H](O)c4ccccc4-c4ccc(Cl)cc4)CC3)cc2)cc1S(=O)(=O)C(F)(F)F` [AZD4320] + Cn1cnc2c(F)c(Nc3ccc(Br)cc3Cl)c(C(=O)NOCCO)cc21 [Selumetinib] (first compound max 1 µM, 7x7, partner max 3 µM), the Bliss excess in [1] is 0.0065; in test [2], -0.0046; in [3] it was 0.102; in the test with LN-405 (Glioblastoma) it was -0.061; in test [4], 0.0427; in test [5], 0.0044. Also, the Bliss excess was 0.0282 in test [6]; 0.0329 with A498 (Kidney Carcinoma); -0.0039 with ARH-77 (Non-Cancerous); 0.0665 in [7]; 0.0614 in the test with 8-MG-BA (Glioblastoma); 0.0826 in [8]. Besides, the Bliss excess is -0.033 in test [9]; 0.0432 in test [10]; 0.0196 in the test on GI-ME-N (Neuroblastoma); 0.0322 in [11]; 0.0747 in test [12]; -0.0039 in the test with IGR-37 (Melanoma). For the same compound, the figures for the Bliss excess (in the test on NCI-H2591 (Mesothelioma); in [13]) were 0.0309 and 0.0226, respectively.
For the compound `COc1nnc2ccc(N3CCC(c4ccc(OCCN5CCN(C)C(=O)[C@H]5C)cc4)CC3)nn12` [AZD5153] + C=CCn1c(=O)c2cnc(Nc3ccc(N4CCN(C)CC4)cc3)nc2n1-c1cccc(C(C)(C)O)n1 [AZD1775] (first compound max 1 µM, partner max 1 µM), the Bliss excess in [1] is -0.132; in test [2], -0.0508; in [3] it was -0.0823; with LN-405 (Glioblastoma), -0.042; in [4], -0.0114; in test [5], -0.123. The Bliss excess is 0.0183 in test [6]; 0.0142 in the test on A498 (Kidney Carcinoma); -0.066 with ARH-77 (Non-Cancerous); -0.0383 in test [7]; -0.0571 in the test with 8-MG-BA (Glioblastoma); -0.0699 in [8]. Also, the Bliss excess in test [9] is -0.0629; in test [10], -0.0503; with GI-ME-N (Neuroblastoma) it was -0.0231; in [11], -0.0756; in [12] it was -0.0093; in the test with IGR-37 (Melanoma), -0.0569. Moreover, the Bliss excess was 0.0145 with NCI-H2591 (Mesothelioma) and -0.0902 in test [13].
As to `COc1nnc2ccc(N3CCC(c4ccc(OCCN5CCN(C)C(=O)[C@H]5C)cc4)CC3)nn12` [AZD5153] + CC1(C)CCC(CN2CCN(c3ccc(C(=O)NS(=O)(=O)c4ccc(NCC5CCOCC5)c([N+](=O)[O-])c4)c(Oc4cnc5[nH]ccc5c4)c3)CC2)=C(c2ccc(Cl)cc2)C1 [Venetoclax] (first compound max 1 µM, 7x7, partner max 1 µM), the Bliss excess in test [1] is -0.119; in test [2] it was -0.106; in test [3] it was -0.0571; with LN-405 (Glioblastoma) it was -0.0861; in [4], -0.0455; in [5] it was -0.0724. The Bliss excess was -0.0349 in test [6]; -0.0895 in the test with A498 (Kidney Carcinoma); -0.0033 in the test with ARH-77 (Non-Cancerous); -0.0391 in test [7]; -0.0116 with 8-MG-BA (Glioblastoma); -0.103 in test [8]. The Bliss excess in [9] was -0.0116; in test [10] it was -0.0919; in the test with GI-ME-N (Neuroblastoma) it was -0.0955; in [11], -0.0486; in test [12], -0.0095; in the test on IGR-37 (Melanoma) it was -0.0171. Moreover, the values for the Bliss excess (in the test on NCI-H2591 (Mesothelioma); in test [13]) were -0.0688 and -0.0659, respectively.
For the compound `COc1nnc2ccc(N3CCC(c4ccc(OCCN5CCN(C)C(=O)[C@H]5C)cc4)CC3)nn12` [AZD5153] + CCN(CCO)CCCOc1ccc2c(Nc3cc(CC(=O)Nc4cccc(F)c4)[nH]n3)ncnc2c1 [AZD2811] (first compound max 1 µM, 7x7, partner max 1 µM), the Bliss excess in test [1] is -0.0713; in test [2] it was -0.076; in test [3] it was -0.0568; with LN-405 (Glioblastoma), -0.0761; in test [4], 0.0609; in test [5] it was 0.0038. The Bliss excess in [6] is -0.0546; in the test on A498 (Kidney Carcinoma), -0.0453; in the test on ARH-77 (Non-Cancerous), -0.0471; in test [7] it was -0.011; with 8-MG-BA (Glioblastoma), 0.0121; in [8], 0.0084. Further, the Bliss excess in test [9] is -0.0755; in test [10], -0.0352; in the test with GI-ME-N (Neuroblastoma), 0.0022; in test [11], -0.0345; in test [12] it was 0.0269; with IGR-37 (Melanoma), 0.0031. The values for the Bliss excess (in the test on NCI-H2591 (Mesothelioma); in test [13]) were -0.0181 and -0.0407, respectively.
Take `COc1nnc2ccc(N3CCC(c4ccc(OCCN5CCN(C)C(=O)[C@H]5C)cc4)CC3)nn12` [AZD5153] + C[C@@H]1COCCN1C2=NC(=NC(=C2)C3(CC3)[S@](=N)(=O)C)C4=C5C=CNC5=NC=C4 [AZD6738] (first compound max 1 µM, 7x7, partner max 10 µM): the Bliss excess in test [1] was -0.0928; in test [2], 0.0179; in [3] it was -0.0065; in the test on LN-405 (Glioblastoma), -0.0235; in test [4], 0.0357; in test [5], -0.067. In addition, the Bliss excess in [6] was 0.0093; in the test with A498 (Kidney Carcinoma), -0.0563; with ARH-77 (Non-Cancerous), -0.0293; in test [7], 0.0323; in the test on 8-MG-BA (Glioblastoma) it was -0.0849; in [8], 0.0219. For the same compound, the Bliss excess in test [9] was 0.0167; in test [10], -0.0454; in the test with GI-ME-N (Neuroblastoma), 0.0858; in test [11] it was -0.0521; in test [12] it was -0.006; with IGR-37 (Melanoma), -0.0149. In addition, the Bliss excess in the test with NCI-H2591 (Mesothelioma) was 0.0634; in test [13], -0.0292.
In the case of `COc1nnc2ccc(N3CCC(c4ccc(OCCN5CCN(C)C(=O)[C@H]5C)cc4)CC3)nn12` [AZD5153] + Cc1c2c(nn1C)CSCc1cc(n(C)n1)CSc1cc(c3ccccc3c1)OCCCc1c(C(=O)O)n(C)c3c-2c(Cl)ccc13 [AZD5991] (first compound max 1 µM, 7x7, partner max 1 µM), the Bliss excess in test [1] is -0.0759; in test [2], -0.0295; in test [3] it was -0.0383; with LN-405 (Glioblastoma), -0.0084; in test [4], -0.0074; in test [5], -0.0542. The Bliss excess is -0.0084 in [6]; -0.0226 in the test on A498 (Kidney Carcinoma); -0.04 with ARH-77 (Non-Cancerous); 0.0771 in test [7]; -0.0367 with 8-MG-BA (Glioblastoma); -0.0162 in test [8]. Besides, the Bliss excess in [9] is -0.0291; in test [10], -0.0569; in the test on GI-ME-N (Neuroblastoma), -0.0142; in test [11], -0.0242; in test [12], -0.0289; in the test with IGR-37 (Melanoma), 0.0608. In addition, the Bliss excess with NCI-H2591 (Mesothelioma) is -0.0657; in [13], -0.0918.

These data come from the supplement of paper PMC11061612.
